# Measured values reported in US6043248A, “Alpha-substituted pyrimidine-thioalkyl and alkylether compounds as inhibitors of viral reverse transcriptase” (priority 1997, dated 2000).
# Where two headings read alike, the source gives them in different places.
# Assays:
# [1] = biological target: T1, viral reverse transcriptase (Wild Type) (Human immunodeficiency virus type 1 group M subtype B, UniProt P04585); assay: inhibition of viral reverse transcriptase (Wild Type), cell free assay; type: biochemical
# T1 construct: Viral reverse transcriptase (Wild Type) is found in extracts from bacterial clones; made in house; host or cells: Escherichia coli
# Description: The utility of the pyrimidine-thioalkyl and alkylether anti-AIDS compounds of Formula IA of this invention can be determined by their ability to inhibit viral reverse transcriptase, an enzyme essential for human immunodeficiency virus replication. This enzyme has characteristics which differentiate it from other known cellular polymerases and it is a unique enzyme which is not found in uninfected cells. Viral reverse transcriptase (Wild Type) is found in extracts from bacterial clones prepared according to the procedure described in AIDS Virus Reverse Transcriptase defined by high level expression in Escherichia coli, EMBO J. 6:3133-3137 (1987). P236L viral reverse transcriptase is obtained by PNAS 90: 4713-4717 (1993). Inhibition of this enzyme is determined in a cell free assay which measures the level of radioactive precursors incorporated into DNA. Extracts prepared according to the procedure of Science, 1125-1129 (1981) are incubated in a mixture of inhibitor, 20 mM dithiothreitol, 60 mM sodium chloride, 0.05% NP-40, 10 mM magnesium chloride, 50 mM Tris pH 8.3, 10 μM [^35 S]-labeled deoxynuleoside-5'-triphosphate, 10 μg/ml RNA template (poly rC or poly rG) and 5 μg/ml DNA primer (oligo dG or oligo dT) for 30 minutes at 37° C. Incorporation of radio-labeled percursor is determined by spotting aliquots of the reaction mixture on DE81 paper, washing the papers to remove unincorporated percursor, drying and determining counts. The results (IC50 means the concentration, in μM of drug, required to inhibit the reverse transcriptase activity (P236L and Wild Type) to the extent of 50%) of various assay(s) are combined and reported as % inhibition and/or IC50 (calculated) in Table I (P236L) and Table II (Wild Type).
# [2] = biological target: T2, P236L viral reverse transcriptase (Human immunodeficiency virus type 1 group M subtype B, UniProt P04585, P823L); assay: inhibition of viral reverse transcriptase (P236L), cell free assay; type: biochemical; conditions: IC50 (Table I, P236L), 30 minutes at 37° C.
# T2 construct: P236L viral reverse transcriptase is obtained by PNAS 90: 4713-4717 (1993); made in house
# Outline: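 E. coli-expressed wild-type or P236L RT extracts incubated with inhibitor 30 min at 37 °C in Tris pH 8.3 with MgCl₂, NaCl, DTT, NP-40, 10 μM [35S]-dNTP, poly rC/rG template and oligo dG/dT primer. Incorporated label counted on DE81 paper; reported as % inhibition and/or IC50.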
# [3] = 30 minutes at 37° C., read-out: IC50 (Table II, Wild Type)
Compound,"IC50 [1, 3]",IC50 [2],further results
"Cc1coc2cnc(C(C)Sc3nc(N)cc(Cl)n3)cc12 (centres unmarked) [Example 246, 4-Amino-6-chloro-2-(1-(3-methylfuro[2,3c]pyridine-5-yl)ethyl)thio-pyrimidine]",24 nM,31 nM,
"CCc1ccnc([C@@H](C)Sc2nc(N)cc(Cl)n2)c1 [Example 291, R-(+)-4-Amino-6-chloro-2-(1-(4-ethyl-2-pyridyl)ethyl)thio-pyrimidine]",187 nM,80 nM,
"COC(=O)/C=C(\C)CSc1nc(N)cc(Cl)n1 [Example 208, (E)-4-[(4-Amino-6-chloro-2-pyrimidinyl)thio]-3-methyl-2-butenoic acid methyl ester]",,1000 nM,inhibition at 10 µM [1]: 79%
"CC(C)COc1ccc(C(C)Sc2nc(N)cc(Cl)n2)nc1Cl (centres unmarked) [Example 307, 4-amino-6-chloro-2-(((5-isobutoxy-6-chloro)-2-pyridyl)-ethyl)thio-pyrimidine]",5000 nM,1000 nM,
CC(C)c1ccnc(C(C)Sc2nc(N)c(Br)c(Cl)n2)c1 (centres unmarked) [Example 225],101 nM,67 nM,
"COC(=O)/C=C/CSc1nc(N)cc(Cl)n1 [Example 193, (E)-4-[(4-Amino-6-chloro-2-pyrimidinyl)thio]-2-butenoic acid methyl ester]",5250 nM,930 nM,
CC(C)Oc1ccnc(C(C)Sc2nc(N)cc(Cl)n2)c1 (centres unmarked) [Example 263],,100 nM,inhibition at 1 µM [1]: 86%
"CCc1ccnc(C(C)Sc2nc(N)cc(Cl)n2)c1 (centres unmarked) [Example 216, 4-Amino-6-chloro-2-(1-(4-ethyl-2-pyridyl)ethyl)thio-pyrimidine]",27 nM,30 nM,
"Cc1cc2cc(C(C)Sc3nc(N)cc(Cl)n3)ncc2o1 (centres unmarked) [Example 242, 4-Amino-6-chloro-2-(1-(2-methylfuro[2,3c]pyridine-5-yl)ethyl)thio-pyrimidine]",282 nM,118 nM,
"Cc1coc2cnc([C@@H](C)Sc3nc(N)cc(C(F)(F)F)n3)cc12 [Example 298, (R)-(+)-4-Amino-6-trifluoromethyl-2-(1-(3-methylfuro[2,3c]pyridin-5-yl)ethylthio)-pyrimidine]",113 nM,79 nM,
"CCc1ccnc([C@H](C)Sc2nc(N)cc(Cl)n2)c1 [Example 292, (-)-4-Amino-6-chloro-2-(1-(4-ethyl-2-pyridyl)ethyl)thio-pyrimidine]",,17 nM,"IC50 ([1]; IC50 (Table II, Wild Type), 30 minutes at 37° C.): 7 nM"
"Cc1coc2cnc([C@@H](C)Sc3nc(N)cc(Cl)n3)cc12 [Example 289, (R)-(+)-4-Amino-6-chloro-2-(1-(3-methylfuro[2,3c]pyridine-5-yl)ethyl)thio-pyrimidine]",29 nM,14 nM,
"N#Cc1cc(N)nc(SCc2ccc3ccccc3c2)n1 [Example 277, 6-amino-2-(2-naphthylmethyl)thio-4-pyrimidine carbonitrile]",,500 nM,inhibition at 10 µM [1]: 84%
"CC(Sc1nc(N)cc(Cl)n1)c1cc2c(cn1)OCC2 (centres unmarked) [Example 247, 4-Amino-6-chloro-2-(1-(2,3-dihydrofuro[2,3c]pyridine-5-yl)ethyl)thio-pyrimidine]",72 nM,61 nM,
"CC(Sc1nc(N)cc(C(F)(F)F)n1)c1cc2c(cn1)CCCC2 (centres unmarked) [Example 234, 4-Amino-6-trifluoromethyl-2-(1-(3-(5,6,7,8-tetrahydro-isoquinolyl))ethyl)thio-pyrimidine]",131 nM,170 nM,
"CC(C)c1ccnc(C(C)Sc2nc(N)cc(C(F)(F)F)n2)c1 (centres unmarked) [Example 272, 4-amino-6-trifluoromethyl-2-(1-(4-(1-methylethyl)2-pyridyl)ethyl)thio-pyrimidine]",112 nM,160 nM,

Compound,"IC50 [1, 3]",IC50 [2],further results
"CC(C)c1ccnc(CSc2nc(N)cc(C(F)(F)F)n2)c1 [Example 271, 4-amino-6-trifluoromethyl-2-((4-(1-methylethyl)2-pyridyl)methyl)thio-pyrimidine]",31 nM,50 nM,
"CC(C)(C)c1ccnc(CSc2nc(N)cc(C(F)(F)F)n2)c1 [Example 273, 4-amino-6-trifluoromethyl-2-((4-(1,1-dimethylethyl)2-pyridyl)methyl)-thio-pyrimidine]",,100 nM,inhibition at 1 µM [1]: 75%
"CCNC(=O)/C=C/CSc1nc(N)cc(Cl)n1 [Example 196, (E)-N-ethyl-4-[(4-amino-6-chloro-2-pyrimidinyl)thio]-2-butenamide]",,10000 nM,inhibition at 50 µM ([1]; @ 50 μM): 71%
CC(Sc1nc(N)cc(Cl)n1)c1cc(C2CCCCC2)ccn1 (centres unmarked) [Example 257],,500 nM,inhibition at 10 µM [1]: 78%
"Cc1cc2cc(C(C)Sc3nc(N)cc(Cl)n3)nc(Cl)c2o1 (centres unmarked) [Example 240, 4-Amino-6-chloro-2-(1-(7-chloro-2-methylfuro[2,3c]pyridin-5-yl)ethyl)thio-pyrimidine]",381 nM,116 nM,
CC(Sc1nc(N)cc(Cl)n1)c1cc2c(C(F)(F)F)coc2c(Cl)n1 (centres unmarked) [Example 293],345 nM,190 nM,
"Cc1coc2c(Cl)nc(C(C)Sc3nc(N)cc(C(F)(F)F)n3)cc12 (centres unmarked) [Example 295, 4-Amino-2-(1-(7-chloro-3-methyl-furo[2,3c]pyridin-5-yl)ethylthio)-6-trifluoromethyl-pyrimidine]",212 nM,249 nM,
"CN(C(=O)/C=C/CSc1nc(N)cc(Cl)n1)c1ccccc1 [Example 200, (E)-N-methyl-N-phenyl-4-[(4-amino-6-chloro-2-pyrimidinyl)thio]-2-butenamide]",,1000 nM,inhibition at 10 µM [1]: 57%
"N#Cc1cc(Cl)nc(SCc2ccc3ccccc3c2)n1 [Example 276, 6-chloro-2-(2-naphthylmethyl)thio-4-pyrimidine carbonitrile]",,50000 nM,"IC50 (Table II, Wild Type) ([1]; 30 minutes at 37° C.): INACTIVE"
"CC(C)c1cncc(C(C)Sc2nc(N)cc(Cl)n2)c1 (centres unmarked) [Example 260, 4-amino-6-chloro-2-(1-(5-(1-methylethyl)-3-pyridyl)-ethyl)thio-pyrimidine]",70 nM,30 nM,
"C=C(C)c1ccnc(C(C)Sc2nc(N)cc(Cl)n2)c1 (centres unmarked) [Example 221, 4-Amino-6-chloro-2-(1-(4-(1-methylethenyl)-2-pyridyl)ethyl)thio-pyrimidine]",19 nM,39 nM,
"Cc1coc2cnc([C@H](C)Sc3nc(N)cc(C(F)(F)F)n3)cc12 [Example 297, (S)-(-)-4-Amino-6-trifluoromethyl-2-(l1-(3-methylfuro[2,3c]pyridin-5-yl)ethylthio)-pyrimidine]",78 nM,64 nM,
"CC(Sc1nc(N)cc(Cl)n1)c1nccc2c1CCCC2 (centres unmarked) [Example 235, 4-Amino-6-chloro-2-(1-(1-(5,6,7,8-tetrahydroisoquinolyl))-ethyl)thiopyrimidine]",,,inhibition at 1 µM [1]: 90%
"CC(Sc1nc(N)c(Br)c(Cl)n1)c1nccc2c1CCCC2 (centres unmarked) [Example 236, 4-Amino-5-bromo-6-chloro-2-(1-(1-(5,6,7,8-tetrahydroisoquinolyl))ethyl)thio-pyrimidine]",,,inhibition at 1 µM [1]: 58%
"CC(Sc1nc(N)cc(Cl)n1)c1cc2c(c(Cl)n1)OCC2(C)C (centres unmarked) [Example 250, 4-Amino-6-chloro-2-(1-(7-chloro-3,3-dimethyl-2,3-dihydrofuro[2,3c]pyridine-5-yl)ethyl)thio-pyrimidine]",153 nM,,
